Assay results published in PubChem BioAssay (NCI).
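Where inhibition never reached the appropriate level, the endpoint shown equals the highest concentration tested. Otherwise, values were interpolated linearly from a five-concentration, 48-hour dose response in 96-well plates. The concentration for full growth arrest is given as TGI.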

Tests used:
Experiment in all cases: NCI tumour cell line growth inhibition, 48 h
U251 CNS = tested on: U251 CNS
ACHN renal = tested on: ACHN renal
A498 renal = tested on: A498 renal
SK-MEL-5 melanoma = tested on: SK-MEL-5 melanoma
PC-3 prostate = tested on: PC-3 prostate
MOLT-4 leukemia = tested on: MOLT-4 leukemia
EKVX NSCLC = tested on: EKVX NSCLC
OVCAR-5 ovarian = tested on: OVCAR-5 ovarian
HCT-116 colon = tested on: HCT-116 colon
SK-MEL-28 melanoma = tested on: SK-MEL-28 melanoma
NCI/ADR-RES ovarian = tested on: NCI/ADR-RES ovarian
SR leukemia = tested on: SR leukemia
NCI-H522 lung = tested on: NCI-H522 lung
SF-295 CNS = tested on: SF-295 CNS
HL-60(TB) leukemia = tested on: HL-60(TB) leukemia
MALME-3M melanoma = tested on: MALME-3M melanoma
KM12 colon = tested on: KM12 colon
SNB-19 CNS = tested on: SNB-19 CNS
HCT-15 colon = tested on: HCT-15 colon
HOP-92 NSCLC = tested on: HOP-92 NSCLC
HOP-62 NSCLC = tested on: HOP-62 NSCLC
UACC-62 melanoma = tested on: UACC-62 melanoma
K-562 leukemia = tested on: K-562 leukemia
SK-OV-3 ovarian = tested on: SK-OV-3 ovarian
CCRF-CEM leukemia = tested on: CCRF-CEM leukemia
OVCAR-3 ovarian = tested on: OVCAR-3 ovarian
HCC-2998 colon = tested on: HCC-2998 colon
DU-145 prostate = tested on: DU-145 prostate
MDA-MB-231 breast = tested on: MDA-MB-231 breast
MCF7 breast = tested on: MCF7 breast
HT29 colon = tested on: HT29 colon
SN12C renal = tested on: SN12C renal
T-47D breast = tested on: T-47D breast
M14 melanoma = tested on: M14 melanoma
UO-31 renal = tested on: UO-31 renal
TK-10 renal = tested on: TK-10 renal
SK-MEL-2 melanoma = tested on: SK-MEL-2 melanoma
CAKI-1 renal = tested on: CAKI-1 renal
LOX IMVI melanoma = tested on: LOX IMVI melanoma
786-0 renal = tested on: 786-0 renal
SW-620 colon = tested on: SW-620 colon
MDA-MB-435 = tested on: MDA-MB-435
COLO 205 colon = tested on: COLO 205 colon
RXF 393 renal = tested on: RXF 393 renal
NCI-H226 lung = tested on: NCI-H226 lung
OVCAR-8 ovarian = tested on: OVCAR-8 ovarian
SF-268 CNS = tested on: SF-268 CNS
MDA-N = tested on: MDA-N
UACC-257 melanoma = tested on: UACC-257 melanoma
HS 578T breast = tested on: HS 578T breast
NCI-H460 lung = tested on: NCI-H460 lung
RPMI-8226 leukemia = tested on: RPMI-8226 leukemia
SNB-75 CNS = tested on: SNB-75 CNS
NCI-H23 lung = tested on: NCI-H23 lung
A549 NSCLC = tested on: A549 NSCLC
SF-539 CNS = tested on: SF-539 CNS
OVCAR-4 ovarian = tested on: OVCAR-4 ovarian
BT-549 breast = tested on: BT-549 breast
IGROV1 ovarian = tested on: IGROV1 ovarian

Measured: TGI

O=C1OC(C2=CC(=O)c3ccccc3C2=O)C(Cl)=C1Cl (centres undefined)
79.2 µM: SF-268 CNS
44.8 µM: MCF7 breast
35.4 µM: SK-MEL-2 melanoma
31.8 µM: UO-31 renal
94.1 µM: SW-620 colon
41 µM: HCT-15 colon
50.9 µM: CCRF-CEM leukemia
61.3 µM: HCC-2998 colon
70.3 µM: SR leukemia
29.8 µM: OVCAR-8 ovarian
39.5 µM: UACC-62 melanoma
52.5 µM: RXF 393 renal
75.5 µM: PC-3 prostate
96.2 µM: SK-MEL-28 melanoma
49.9 µM: LOX IMVI melanoma
36 µM: MDA-MB-231 breast
39.3 µM: NCI-H522 lung
72.7 µM: SF-539 CNS
59.4 µM: NCI-H23 lung
83.7 µM: T-47D breast
59 µM: SN12C renal
33.6 µM: ACHN renal
43.2 µM: 786-0 renal
83.3 µM: K-562 leukemia
86 µM: U251 CNS
57.9 µM: MALME-3M melanoma
47.3 µM: RPMI-8226 leukemia
95.3 µM: NCI-H226 lung
not listed: OVCAR-4 ovarian | BT-549 breast | IGROV1 ovarian
> 100 µM: all other assays above

O=C1Oc2ccccc2C(=O)/C1=C/N1C(=O)N/C(=C\c2cccc(O)c2)C1=O
73.2 µM: BT-549 breast
not listed: A498 renal | SR leukemia | NCI-H522 lung | MALME-3M melanoma | UACC-62 melanoma | K-562 leukemia | CCRF-CEM leukemia | RXF 393 renal | SF-268 CNS | HS 578T breast | RPMI-8226 leukemia
> 100 µM: all other assays above
